Data as given in patent EP4635969A1, “NOVEL GLUCOCORTICOID, METHOD FOR PREPARING SAME, AND USE THEREOF” (Tianjin Pharmaceutical Biotechnology Co., Ltd., priority 2022, dated 2024).

How the values were obtained:
uveitis model rats = test: Anti-uveitis pharmacodynamic experiment (LPS model): ocular pathological score; assay type: in vivo, male SD rats; details: compared with the model group
Method: Fifty male SD rats underwent a one-week adaptive feeding period. […] Groups 2 to 5 were used to establish rat uveitis models by single subcutaneous injection of 1 mg/kg LPS (Salmonella; Sigma; Lot No. 0000164114) into the plantar tissue of the hindpaw. Salmonella endotoxin was dissolved in normal saline to prepare an injection solution at a concentration of 2 mg/mL, which was injected subcutaneously at 1 mg/kg into the plantar tissue of one paw of the rats. Group 1 was injected with an equal volume of normal saline.
At the end of the experiment, photos of the rats' eyes were taken using a slit-lamp microscope, and the differences in ocular lesions of rats among groups were compared and analyzed.

IL-17 = test: Psoriasis experiment (imiquimod model): inflammatory cytokine in serum (ELISA); assay type: in vivo, mice; details: compared with the model group
Method: Positive control drug: Fluticasone Propionate Cream (specification: 0.05% × 15 g, Zhejiang Xianju Pharmaceutical Co. Ltd., Lot No. 211106), stored at room temperature protected from light until use.
Adult mice were selected, and the skin of 2 cm × 3 cm on the back of mice was locally depilated. The mice in the model group and drug administration group were applied with 62.5 mg of 5% imiquimod cream on their back for modeling, while the mice in the blank control group were applied with medical petroleum jelly on their back daily. The above procedures were performed once a day for 7 consecutive days.
The mice in the drug administration group were applied with the corresponding drugs on their backs daily at a dose of 0.2 g per mouse, while the blank control group and the model group were only applied with 0.2 g of the test sample drug matrix. One hour after drug administration, the drugs were wiped off with sterile cotton swabs, followed by the application of imiquimod. The above procedures were performed once a day for 7 consecutive days.
After the PASI scoring on day 8 of modeling, blood was collected from the orbital sinus of mice and centrifuged at 3000 rpm for 10 min. The supernatant was extracted to measure the level of IL-17. All procedures were performed following the instructions of the ELISA kit.
Statistical analysis was performed using SPSS software, and the results were expressed as mean ± standard deviation. One-way ANOVA was used for intergroup comparisons. For data with homogeneous variance, the LSD test was used; for data with heterogeneous variance, the Dunnett-t test was used. A value of P < 0.05 was considered statistically significant.

[1] = molecular target: T1, mineralocorticoid receptor (MR) (Homo sapiens, UniProt P08235); test: Assay for agonist activity on mineralocorticoid receptor (luciferase reporter, HEK293 cells transfected with pBIND-MR plasmid); assay type: cell-based
T1 sequence (P08235 726-984): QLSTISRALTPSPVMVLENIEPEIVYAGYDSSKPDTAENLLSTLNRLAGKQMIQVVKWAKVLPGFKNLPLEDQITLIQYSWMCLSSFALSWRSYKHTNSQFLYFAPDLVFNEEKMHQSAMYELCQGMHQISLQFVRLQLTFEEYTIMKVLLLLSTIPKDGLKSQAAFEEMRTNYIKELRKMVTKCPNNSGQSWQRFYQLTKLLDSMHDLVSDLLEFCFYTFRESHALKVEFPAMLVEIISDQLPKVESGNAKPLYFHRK
Outline: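 HEK293 cells transiently transfected with pBIND-MR or pBIND-PR, seeded in phenol red-free DMEM with 5% charcoal-stripped serum. Compounds tested as 12-point 4-fold dilutions from 50 µM in duplicate, 0.1% DMSO blank. Luciferase luminescence read, EC50 by nonlinear fit.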

[2] = Pharmacokinetic (PK) experiment in rats; assay type: in vivo, male SD rats; details: same experimental conditions
Outline: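 Male SD rats dosed by body weight, oral group fasted overnight until 4 h post-dose. Jugular blood sampled 2 min–24 h into heparin; plasma analysed and PK parameters derived from concentration–time data.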

[3] = test system: inflammatory cytokines (TNF-α); test: Anti-uveitis pharmacodynamic experiment (LPS model): inflammatory cytokines in aqueous humor (ELISA); assay type: in vivo, male SD rats; details: values not given
Method: Pharmacological Example 5. Pharmacodynamic Experiment on Anti-Uveitis
Test samples: Compounds 23 and 26 were prepared as 5 mg/5 mL ophthalmic suspensions with reference to the formulation of Fluorometholone Eye Drops, and stored at room temperature protected from light until use.
Positive control drug: Fluorometholone Eye Drops (specification: 5 mL/5 mg; Santen Pharmaceutical (CHINA) Co., Ltd.; Lot No. : J20180068) was used as the positive control drug and stored at room temperature protected from light until use.
Fifty male SD rats underwent a one-week adaptive feeding period. The animals were randomly divided into 5 groups: Group 1 served as the blank control group, and Groups 2 to 5 were the model group, fluorometholone group, compound 23 group, and compound 26 group, respectively. Groups 2 to 5 were used to establish rat uveitis models by single subcutaneous injection of 1 mg/kg LPS (Salmonella; Sigma; Lot No. 0000164114) into the plantar tissue of the hindpaw. Salmonella endotoxin was dissolved in normal saline to prepare an injection solution at a concentration of 2 mg/mL, which was injected subcutaneously at 1 mg/kg into the plantar tissue of one paw of the rats. Group 1 was injected with an equal volume of normal saline.
After modeling, 40 µL of normal saline was administered to the eyes (bilateral) of the rats in the blank control group and model group, and 40 µL of the corresponding drugs were administered to the eyes (bilateral) of the […] in the compound 23 group, compound 26 group, and positive drug fluorometholone group, 3 times a day for 2 days. Table 8. Animal grouping and drug administration dosages
Thirty hours after modeling, aqueous humor was collected from both eyes of rats, and partial eyeball tissues of rats were collected. The level of the inflammatory cytokines (TNF-α) was detected using a rat ELISA assay kit.
Statistical analysis was performed using SPSS software. Measurement data were expressed as mean ± standard deviation. One-way ANOVA was used for intergroup comparisons. For data with homogeneous variance, LSD test was used; for data with heterogeneous variance, Dunnett-t test was used. A value of P < 0.05 was considered statistically significant.

Row | Structure (SMILES) | ocular abnormalities / ocular pathological score (uveitis model rats) | level of IL-17 / inflammatory cytokines in psoriasis model mice (IL-17) | EC50 [1] [µM] | Target selectivity MR/GR ([1]; ratio of EC50 values) | pharmacokinetic properties (plasma clearance rate, systemic exposure) [2] | inflammatory cytokines in aqueous humor [3] | target selectivity ([1]; MR/GR and PR/GR, same experimental conditions)
1 | C[C@]12C=CC(=O)C=C1CC[C@H]1[C@@H]3C[C@H]4OC(c5ccc(COC6CCOC6=O)cc5)O[C@@]4(C(=O)CO)[C@@]3(C)C[C@H](O)[C@@]12F (stereo partly drawn) [Compound 16, (6aS,6bR,7S,8aS,8bS,11aR,12aS,12bS)-6b-Fluoro-7-hydroxy-8b-(2-hydroxyacetyl)-6a,8a-dimethyl-10-(4-(((2-oxotetrahydrofuran-3-yl)oxy)methyl)phenyl)-1,2,6a,6b,7,8,8a,8b,11a,12,12a,12b-do decahydro-4H-naphtho[2',1':4,5]indeno[1,2-d][1,3]dioxol-4-one] | significantly improved ocular abnormalities | significantly inhibited inflammatory cytokines in the skin of psoriasis model mice | > 50 | > 1.2×10^5 | pharmacokinetic properties similar to those of compound 8 | suppressed inflammatory cytokines in aqueous humor | –
2 | C[C@]12C=CC(=O)C=C1CC[C@H]1[C@@H]3C[C@H]4OC(c5ccc(CSC6CCOC6=O)cn5)O[C@@]4(C(=O)CO)[C@@]3(C)C[C@H](O)[C@@]12Cl (stereo partly drawn) [Compound 51, (6aS,6bR,7S,8aS,8bS,11aR,12aS,12bS)-6b-Chloro-7-hydroxy-8b-(2-hydroxyacetyl)-6a,8a-dimethyl-10-(5-(((2-oxotetrahydrofuran-3-yl)thio)methyl)pyridin-2-yl)-1,2,6a,6b,7,8,8a,8b,11a,12,12a,12 b-dodecahydro-4H-naphtho[2',1':4,5]indeno[1,2-d][1,3]dioxol-4-one] | significantly improved ocular abnormalities | significantly inhibited inflammatory cytokines in the skin of psoriasis model mice | – | – | pharmacokinetic properties similar to those of compound 8 | suppressed inflammatory cytokines in aqueous humor | target selectivity comparable to that of compound 23
